{"source": "PubChem BioAssay (NCI)", "test_in_all_cases": "NCI tumour cell line growth inhibition, 48 h", "key": {"[1]": {"test_system": "NCI-H460 lung"}, "[2]": {"test_system": "HOP-62 NSCLC"}, "[3]": {"test_system": "A549 NSCLC"}, "[4]": {"test_system": "SK-MEL-2 melanoma"}, "[5]": {"test_system": "SNB-19 CNS"}, "[6]": {"test_system": "MDA-MB-435"}, "[7]": {"test_system": "HL-60(TB) leukemia"}, "[8]": {"test_system": "EKVX NSCLC"}, "[9]": {"test_system": "NCI-H23 lung"}, "[10]": {"test_system": "UACC-257 melanoma"}, "[11]": {"test_system": "MDA-MB-231 breast"}, "[12]": {"test_system": "SF-539 CNS"}, "[13]": {"test_system": "HCT-116 colon"}, "[14]": {"test_system": "MOLT-4 leukemia"}, "[15]": {"test_system": "HT29 colon"}, "[16]": {"test_system": "DU-145 prostate"}, "[17]": {"test_system": "M14 melanoma"}, "[18]": {"test_system": "K-562 leukemia"}, "[19]": {"test_system": "SN12C renal"}, "[20]": {"test_system": "BT-549 breast"}, "[21]": {"test_system": "RXF 393 renal"}, "[22]": {"test_system": "CCRF-CEM leukemia"}, "[23]": {"test_system": "OVCAR-3 ovarian"}, "[24]": {"test_system": "SF-268 CNS"}, "[25]": {"test_system": "OVCAR-8 ovarian"}, "[26]": {"test_system": "KM12 colon"}, "[27]": {"test_system": "ACHN renal"}, "[28]": {"test_system": "PC-3 prostate"}, "[29]": {"test_system": "HOP-92 NSCLC"}}, "note": "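These data come from cells grown in 96-well plates and exposed to compound for 48 hours at five concentrations. The concentration for 50% growth inhibition is given as GI50. Definition used: TGI = concentration required for complete inhibition of growth.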", "data": [{"compound": "CCO/C=N/C1=C(C#N)C(c2ccc(F)cc2)c2sc3c(C)cccc3c2O1", "note": "(stereo not drawn)", "values": [{"measurement": "GI50", "setting": "[1]", "value": 367, "unit": "nM"}, {"measurement": "TGI", "setting": "[1]", "value": 11100, "unit": "nM"}, {"measurement": "GI50", "setting": "[2]", "value": 423, "unit": "nM"}, {"measurement": "TGI", "setting": "[2]", "value": 15800, "unit": "nM"}, {"measurement": "GI50", "setting": "[3]", "value": 458, "unit": "nM"}, {"measurement": "TGI", "setting": "[3]", "value": 18700, "unit": "nM"}, {"measurement": "GI50", "setting": "[4]", "value": 726, "unit": "nM"}, {"measurement": "TGI", "setting": "[4]", "value": 20700, "unit": "nM"}, {"measurement": "GI50", "setting": "[5]", "value": 452, "unit": "nM"}, {"measurement": "TGI", "setting": "[5]", "value": 16500, "unit": "nM"}, {"measurement": "GI50", "setting": "[6]", "value": 178, "unit": "nM"}, {"measurement": "TGI", "setting": "[6]", "value": 609, "unit": "nM"}, {"measurement": "GI50", "setting": "[7]", "value": 340, "unit": "nM"}, {"measurement": "TGI", "setting": "[7]", "value": 12900, "unit": "nM"}, {"measurement": "GI50", "setting": "[8]", "value": 383, "unit": "nM"}, {"measurement": "TGI", "setting": "[8]", "value": 18300, "unit": "nM"}, {"measurement": "GI50", "setting": "[9]", "value": 517, "unit": "nM"}, {"measurement": "TGI", "setting": "[9]", "value": 14700, "unit": "nM"}, {"measurement": "GI50", "setting": "[10]", "value": 12900, "unit": "nM"}, {"measurement": "TGI", "setting": "[10]", "value": 35600, "unit": "nM"}, {"measurement": "GI50", "setting": "[11]", "value": 531, "unit": "nM"}, {"measurement": "TGI", "setting": "[11]", "value": 17600, "unit": "nM"}, {"measurement": "GI50", "setting": "[12]", "value": 243, "unit": "nM"}, {"measurement": "TGI", "setting": "[12]", "value": 1540, "unit": "nM"}, {"measurement": "GI50", "setting": "[13]", "value": 375, "unit": "nM"}, {"measurement": "TGI", "setting": "[13]", "value": 10400, "unit": "nM"}, {"measurement": "GI50", "setting": "[14]", "value": 560, "unit": "nM"}, {"measurement": "TGI", "setting": "[14]", "value": 32200, "unit": "nM"}, {"measurement": "GI50", "setting": "[15]", "value": 389, "unit": "nM"}, {"measurement": "TGI", "setting": "[15]", "value": 12600, "unit": "nM"}, {"measurement": "GI50", "setting": "[16]", "value": 434, "unit": "nM"}, {"measurement": "TGI", "setting": "[16]", "value": 14200, "unit": "nM"}, {"measurement": "GI50", "setting": "[17]", "value": 316, "unit": "nM"}, {"measurement": "TGI", "setting": "[17]", "value": 12200, "unit": "nM"}, {"measurement": "GI50", "setting": "[18]", "value": 281, "unit": "nM"}, {"measurement": "TGI", "setting": "[18]", "value": "> 62100", "unit": "nM"}, {"measurement": "GI50", "setting": "[19]", "value": 534, "unit": "nM"}, {"measurement": "TGI", "setting": "[19]", "value": 13900, "unit": "nM"}, {"measurement": "GI50", "setting": "[20]", "value": 751, "unit": "nM"}, {"measurement": "TGI", "setting": "[20]", "value": 5630, "unit": "nM"}, {"measurement": "GI50", "setting": "[21]", "value": 175, "unit": "nM"}, {"measurement": "TGI", "setting": "[21]", "value": 550, "unit": "nM"}, {"measurement": "GI50", "setting": "[22]", "value": 359, "unit": "nM"}, {"measurement": "TGI", "setting": "[22]", "value": 21300, "unit": "nM"}, {"measurement": "GI50", "setting": "[23]", "value": 379, "unit": "nM"}, {"measurement": "TGI", "setting": "[23]", "value": 11900, "unit": "nM"}, {"measurement": "GI50", "setting": "[24]", "value": 1740, "unit": "nM"}, {"measurement": "TGI", "setting": "[24]", "value": 17300, "unit": "nM"}, {"measurement": "GI50", "setting": "[25]", "value": 499, "unit": "nM"}, {"measurement": "TGI", "setting": "[25]", "value": 20300, "unit": "nM"}, {"measurement": "GI50", "setting": "[26]", "value": 389, "unit": "nM"}, {"measurement": "TGI", "setting": "[26]", "value": 14700, "unit": "nM"}, {"measurement": "GI50", "setting": "[27]", "value": 616, "unit": "nM"}, {"measurement": "TGI", "setting": "[27]", "value": 14600, "unit": "nM"}, {"measurement": "GI50", "setting": "[28]", "value": 386, "unit": "nM"}, {"measurement": "TGI", "setting": "[28]", "value": 14800, "unit": "nM"}, {"measurement": "GI50", "setting": "[29]", "value": 624, "unit": "nM"}, {"measurement": "TGI", "setting": "[29]", "value": 8000, "unit": "nM"}]}]}
